Consider 18 molecules from patent US20230357320A1, “HELICAL STAPLED PEPTIDES AND USES THEREOF” (FOG PHARMACEUTICALS, INC., priority 2020, published 2023).

The structures appear in SMILES notation. Starred links: 1 amine or outer side, 2 acyl side, 3 side chain; linkers in the order of their positions; H or OH if unused. Positions of bridges follow the written chain, without caps; N, C: chain ends. Non-standard residues stand in square brackets, D forms with d. Residues, ends and D or L forms follow the SMILES beside them. X1 = O=C([C@]1(CC=[*:3])CCCN1[*:1])[*:2]; αAllylPro = C=CC[C@@]1(C(=O)O)CCCN1; Ala(cPr) = N[C@@H](CC1CC1)C(=O)O; S5 = C=CCCC[C@](C)(N)C(=O)O

A short description of data set [1]: in vitro. On the set-up: dose or concentration left out as unconfirmed. To be noted: PAMPA, pH 7.4, PAMPA Pe.
Protocol: (§1) The synthesized peptides were first analyzed with a PAMPA assay. […] The PAMPA plate system is composed of two compartments, donor and acceptor, which are separated by a phospholipid-infused membrane. The amount of compound transferred from the acceptor well into the donor well over a period of incubation time is used to determine the passive permeability of a compound.
(§2) The two plates are separated by a membrane infused with phospholipids. […] The amount of compound transferred from one well to the other is usually quantified by reverse-phase HPLC-mass spectrometry.
(§3) Briefly, all PAMPA assays were performed using the commercially available PAMPA plate system from Corning, which uses a proprietary membrane composed of structured phospholipids. […] To prevent nonspecific peptide loss to the plates, the acceptor wells of the Corning PAMPA plates were blocked overnight with 5% nonfat milk with 0.1% Triton X-100 in Dulbecco's phosphate buffer saline (DPBS) at pH=7.4, followed by extensive washing prior to assays. The donor wells and membrane itself were not exposed to the milk/Triton solution. […] The PAMPA experiments described herein were performed using plates from Corning Lot #9112010, Lot #9112011 and Lot #7317005 (Corning Inc., Corning, New York, USA).
(§4) To set up PAMPA assays, the PAMPA plate system was equilibrated at room temperature for at least an hour before setting up the assay. The acceptor plate preincubated with milk blocking solution was washed with water, followed by DPBS buffer. 300 μL of 5% DMSO in DPBS at pH=7.4 was added to the pre-blocked acceptor plate, and 200 μL of 10M compounds made with 5% DMSO in DPBS at pH=7.4 was added to the donor plate. The donor plate with a lid was then carefully inserted into the acceptor plate with no bubbles formed at the interface of donor and acceptor plates. The PAMPA assay plate was covered with aluminum foil and placed in a 37° C. incubator for 5 hours. 10 M input solution of all compounds was diluted 20-fold to a final acetonitrile concentration of 50% before analyzing by reverse-phase HPLC and Q-Exactive plus mass spectrometer. At the end of 5 hours, PAMPA donor and acceptor plates were separated and diluted 20-fold and 2-fold respectively to a final acetonitrile concentration of 50%. The diluted solutions of PAMPA donor and acceptor plates were analyzed by reverse-phase HPLC and Q-Exactive plus mass spectrometer.
(§5) Pe measures the passive permeability of each compound tested in the PAMPA assay, whereas % retention measures the amount of compound retained in solution at the end of the assay compared to the input sample.
For data set [2] the following is noted: PAMPA. (In PAMPA a lipid-coated filter parts donor from acceptor wells.)
Protocol: as §1, §2, §3, §4, §5
Data set [3] in a line: CHI Log D measurement (chromatographic hydrophobicity index). To be noted: for chromatographic logD: pH 7.4.
Where [4] appears, read: reverse-phase HPLC, Phenomenex Gemini C-18 column.
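For % Retention in this document: Phospholipid-membrane PAMPA, donor and acceptor in DPBS pH 7.4 with 5% DMSO, 37 °C for 5 h, compound in each well quantified by reverse-phase HPLC-MS.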
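For Papp in this document: Phospholipid-membrane PAMPA, donor and acceptor in DPBS pH 7.4 with 5% DMSO, 37 °C for 5 h, compound in each well quantified by reverse-phase HPLC-MS.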

One may read the Papp as a coefficient for how fast a substance crosses the barrier. Broadly, the chromatographic logD is lipophilicity estimated from chromatographic retention. On to `C=CCCC[C@](C)(NC(=O)[C@H](CC(C)C)NC(=O)[C@H](CCCCN)NC(=O)[C@]1(CC=C)CCCN1C(C)=O)C(=O)N[C@@H](CC(N)=O)C(=O)N[C@@H](CC(C)C)C(=O)N[C@@H](CC(C)C)C(=O)N[C@H](C(=O)N[C@@H](Cc1ccc(O)cc1)C(=O)NC)[C@@H](C)O` [PLL4-5 variant 5, Ac-PL3-Lys-Leu-S5-Asn-Leu-Leu-Thr-Tyr-NHMe] (Ac-[αAllylPro]KL[S5]NLLTY-NHMe), for which the Papp at 5 h in data set [1] was ≤ 0.1 ×10⁻⁶ cm/s. The “% Retention” value in data set [2] is given as 73 ± 4%. The same molecule registered a chromatographic logD in data set [3] of 2.3.
The matching figures for `CC(=O)N1CCC[C@]12CC=CCCC[C@@](C)(C(=O)N[C@@H](CCCNC(=N)N)C(=O)N[C@@H](CC(C)C)C(=O)N[C@@H](CC(C)C)C(=O)N[C@@H](Cc1c[nH]cn1)C(=O)N[C@@H](CC(=O)O)C(N)=O)NC(=O)[C@H](CC(C)C)NC(=O)[C@H](CC(C)C)NC2=O` (single isomer, unassigned) [PLL7-9 variant 3, Ac-PL3-Leu-Leu-S5-Arg-Leu-Leu-His-Asp-NH2]: 0.5 ± 0.1 ×10⁻⁶ cm/s, 98 ± 10% and 1.9.
Take `CNC(=O)[C@H](CCC(N)=O)NC(=O)[C@H](CC(C)C)NC(=O)[C@H](CC(C)C)NC(=O)[C@H](Cc1ccc(O)cc1)NC(=O)[C@]1(C)CCCC=CC[C@]2(CCCN2C(C)=O)C(=O)N[C@@H](CC(C)C)C(=O)N[C@@H](CC(C)C)C(=O)N1` [PLL5-12, Ac-PL3-Leu-Leu-S5-Tyr-Leu-Leu-Gln-NHMe] (Ac-[X1]LL[S5]YLLQ-NHMe; staple 1-4): in data set [1], the Papp at 5 h was ≤ 0.1 ×10⁻⁶ cm/s. Also, the “% Retention” value in data set [2] is listed as 97 ± 1%. The molecule further yielded a chromatographic logD in data set [3] (setting [4]) of 3.2.
As to `CCCC[C@@H]1NC(=O)[C@H](CC(C)C)NC(=O)[C@]2(CC=CCCC[C@@](C)(C(=O)N[C@@H](CC(C)C)C(=O)N[C@@H](CC(C)C)C(=O)N[C@@H](Cc3c[nH]cn3)C(=O)N[C@@H](Cc3ccc(O)cc3)C(=O)NC)NC1=O)CCCN2C(C)=O` (single isomer, unassigned) [PLL4-9, Ac-PL3-Leu-Nle-S5-Leu-Leu-His-Tyr-NHMe], the Papp at 5 h in data set [1] was ≤ 0.1 ×10⁻⁶ cm/s. The “% Retention” value in data set [2] came out at 43 ± 3%. In data set [3], this molecule showed a chromatographic logD of 3.3.
Taken in the same sequence, the figures for `CNC(=O)[C@H](CC(=O)O)NC(=O)[C@H](Cc1c[nH]cn1)NC(=O)[C@H](CC(C)C)NC(=O)[C@H](CC(C)C)NC(=O)[C@H](CCCNC(=N)N)NC(=O)[C@]1(C)CCCC=CC[C@]2(CCCN2C(C)=O)C(=O)O[C@@H](CC(C)C)C(=O)N[C@@H](CC(C)C)C(=O)N1` (single isomer, unassigned) [PLL7-9 variant 2, Ac-PL3-Lec-Leu-S5-Arg-Leu-Leu-His-Asp-NHMe] were 0.3 ± 0.1 ×10⁻⁶ cm/s, 82 ± 2% and 2.4.
Turning to `CNC(=O)[C@H](Cc1ccc(O)cc1)NC(=O)[C@H](CC(=O)O)NC(=O)[C@H](CC(C)C)NC(=O)[C@H](CC(C)C)NC(=O)[C@H](Cc1ccc(O)cc1)NC(=O)[C@]1(C)CCCC=CC[C@]2(CCCN2C(C)=O)C(=O)N[C@@H](CC(C)C)C(=O)N[C@@H](CC(C)C)C(=O)N1` [PLL5-1, Ac-PL3-Leu-Leu-S5-Tyr-Leu-Leu-Asp-Tyr-NHMe] (Ac-[X1]LL[S5]YLLDY-NHMe; staple 1-4), in data set [1], the Papp at 5 h is ≤ 0.1 ×10⁻⁶ cm/s. In data set [2], the “% Retention” value came out at 36 ± 1%. The same molecule came in with a chromatographic logD in data set [3] (setting [4]) of 2.4.
For the molecule `CNC(=O)[C@H](CC(=O)O)NC(=O)[C@H](CC(=O)O)NC(=O)[C@H](CC(C)C)NC(=O)[C@H](CC(C)C)NC(=O)[C@H](Cc1ccc(O)cc1)NC(=O)[C@]1(C)CCCC=CC[C@]2(CCCN2)C(=O)N[C@@H](CC(C)C)C(=O)N[C@@H](CC(C)C)C(=O)N1` (single isomer, unassigned) [PLL5-2 variant 1, H-PL3-Leu-Leu-S5-Tyr-Leu-Leu-Asp-Asp-NHMe], the Papp at 5 h in data set [1] stood at 0.4 ± 0.1 ×10⁻⁶ cm/s. Also, in data set [2], the “% Retention” value stood at 69 ± 2%. Besides, the chromatographic logD in data set [3] came out at 1.4.
The matching figures for `CC(=O)N1CCC[C@]12CC=CCCC[C@@](C)(C(=O)N[C@@H](Cc1c[nH]cn1)C(=O)N[C@@H](CC(C)C)C(=O)N[C@@H](CC(C)C)C(=O)N[C@@H](CC(N)=O)C(N)=O)NC(=O)[C@H](CC(C)C)NC(=O)[C@H](C)NC2=O` (single isomer, unassigned) [PLL7-20 variant 3, Ac-PL3-Ala-Leu-S5-His-Leu-Leu-Asn-NH2]: 0.5 ± 0.2 ×10⁻⁶ cm/s, 76 ± 10% and 2.1.
The matching figures for `CNC(=O)[C@H](CC(=O)O)NC(=O)[C@H](Cc1c[nH]cn1)NC(=O)[C@H](CC(C)C)NC(=O)[C@H](CC(C)C)NC(=O)[C@H](CCCNC(=N)N)NC(=O)[C@]1(C)CCCC=CCCC[C@](C)(NC(C)=O)C(=O)N[C@@H](C)C(=O)N[C@@H](CC(C)C)C(=O)N[C@@H](CC(C)C)C(=O)N1` [PLL7-9 variant 4, Ac-S5-Ala-Leu-Leu-S5-Arg-Leu-Leu-His-Asp-NHMe] (Ac-[S5]ALL[S5]RLLHD-NHMe; staple 1-5): ≤ 0.1 ×10⁻⁶ cm/s, 101 ± 24% and 2.7.
Regarding `CNC(=O)[C@H](Cc1ccc(O)cc1)NC(=O)[C@H](CCC(N)=O)NC(=O)[C@H](CC(C)C)NC(=O)[C@H](CC(C)C)NC(=O)[C@H](Cc1ccc(O)cc1)NC(=O)[C@]1(C)CCCC=CC[C@]2(CCCN2C(C)=O)C(=O)N[C@@H](CC(C)C)C(=O)N[C@@H](CC(C)C)C(=O)N1` [PLL5-3, Ac-PL3-Leu-Leu-S5-Tyr-Leu-Leu-Gln-Tyr-NHMe] (Ac-[X1]LL[S5]YLLQY-NHMe; staple 1-4), the Papp at 5 h in data set [1] is ≤ 0.1 ×10⁻⁶ cm/s. For the same molecule, the “% Retention” value in data set [2] was 83 ± 1%. In data set [3] (setting [4]), this molecule returned a chromatographic logD of 3.5.
As to `C=CCCC[C@](C)(NC(=O)[C@H](CC(C)C)NC(=O)[C@H](CC(C)C)NC(=O)[C@]1(CC=C)CCCN1C(C)=O)C(=O)N[C@@H](Cc1ccc(O)cc1)C(=O)N[C@@H](CC(C)C)C(=O)N[C@@H](CC(C)C)C(=O)N[C@@H](CC(=O)O)C(=O)NC` [PLL4-10 variant 5, Ac-PL3-Leu-Leu-S5-Tyr-Leu-Leu-Asp-NHMe] (Ac-[αAllylPro]LL[S5]YLLD-NHMe), in data set [1], the Papp at 5 h came to 0.2 ± 0.1 ×10⁻⁶ cm/s. Besides, in data set [2], the “% Retention” value is reported as 70 ± 2%. This molecule registered a chromatographic logD in data set [3] of 2.8.
Taken in the same sequence, the figures for `CNC(=O)[C@H](CC(=O)O)NC(=O)[C@H](CCC(N)=O)NC(=O)[C@H](CC(C)C)NC(=O)[C@H](CC(C)C)NC(=O)[C@H](Cc1ccc(O)cc1)NC(=O)[C@]1(C)CCCC=CC[C@]2(CCCN2C(C)=O)C(=O)O[C@@H](CC(C)C)C(=O)N[C@@H](CC(C)C)C(=O)N1` (single isomer, unassigned) [PLL7-7 variant 2, Ac-PL3-Lec-Leu-S5-Tyr-Leu-Leu-Gln-Asp-NHMe] were ≤ 0.1 ×10⁻⁶ cm/s, 64 ± 1% and 2.6.
Turning to `C=CCCC[C@](C)(NC(=O)[C@H](CC(C)C)NC(=O)[C@H](CC1CC1)NC(=O)[C@]1(CC=C)CCCN1C(C)=O)C(=O)N[C@@H](Cc1ccc(O)cc1)C(=O)N[C@@H](CC(C)C)C(=O)N[C@@H](CC(C)C)C(=O)N[C@@H](CCC(N)=O)C(=O)N[C@@H](CC(=O)O)C(=O)NC` [PLL7-7 variant 5, Ac-PL3-Cpa-Leu-S5-Tyr-Leu-Leu-Gln-Asp-NHMe] (Ac-[αAllylPro][Ala(cPr)]L[S5]YLLQD-NHMe), the Papp at 5 h in data set [1] came out at 0.3 ± 0.1 ×10⁻⁶ cm/s. The “% Retention” value in data set [2] is reported as 84 ± 2%. This molecule also gave a chromatographic logD in data set [3] of 2.3.
Turning to `CNC(=O)[C@H](CC(=O)O)NC(=O)[C@H](Cc1c[nH]cn1)NC(=O)[C@H](CC(C)C)NC(=O)[C@H](CC(C)C)NC(=O)[C@H](CCCNC(=N)N)NC(=O)[C@]1(C)CCCC=CC[C@]2(CCCN2)C(=O)N[C@@H](CC(C)C)C(=O)N[C@@H](CC(C)C)C(=O)N1` (single isomer, unassigned) [PLL7-9 variant 1, H-PL3-Leu-Leu-S5-Arg-Leu-Leu-His-Asp-NHMe], the Papp at 5 h in data set [1] was ≤ 0.1 ×10⁻⁶ cm/s. Besides, the “% Retention” value in data set [2] came to 86 ± 2%. For the same molecule, the chromatographic logD in data set [3] turned out to be 3.7. Besides, in data set [3] (result in words), the “CHI Log D compared to the parent ProLock stapled peptide” value was “surprisingly high”.
Turning to `C=CCCC[C@](C)(NC(=O)[C@H](CC(C)C)NC(=O)[C@H](C)NC(=O)[C@]1(CC=C)CCCN1C(C)=O)C(=O)N[C@@H](Cc1c[nH]cn1)C(=O)N[C@@H](CC(C)C)C(=O)N[C@@H](CC(C)C)C(=O)N[C@@H](CC(N)=O)C(=O)NC` [PLL7-20 variant 5, Ac-PL3-Ala-Leu-S5-His-Leu-Leu-Asn-NHMe] (Ac-[αAllylPro]AL[S5]HLLN-NHMe), the Papp at 5 h in data set [1] amounted to 0.3 ± 0.1 ×10⁻⁶ cm/s. Besides, the “% Retention” value in data set [2] is on record as 88 ± 4%. Besides, the chromatographic logD in data set [3] is 2.7.
Taken in the same sequence, the figures for `CNC(=O)[C@H](CC(=O)O)NC(=O)[C@H](CCC(N)=O)NC(=O)[C@H](CC(C)C)NC(=O)[C@H](CC(C)C)NC(=O)[C@H](Cc1ccc(O)cc1)NC(=O)[C@]1(C)CCCC=CC[C@]2(CCCN2)C(=O)N[C@@H](CC2CC2)C(=O)N[C@@H](CC(C)C)C(=O)N1` (single isomer, unassigned) [PLL7-7 variant 1, H-PL3-Cpa-Leu-S5-Tyr-Leu-Leu-Gln-Asp-NHMe] were 0.4 ± 0.1 ×10⁻⁶ cm/s, 84 ± 2% and 1.8.
The matching figures for `CNC(=O)[C@H](CC(=O)O)NC(=O)[C@H](CC(C)C)NC(=O)[C@H](CC(C)C)NC(=O)[C@H](Cc1ccc(O)cc1)NC(=O)[C@]1(C)CCCC=CC[C@]2(CCCN2)C(=O)N[C@@H](CC(C)C)C(=O)N[C@@H](CC(C)C)C(=O)N1` (single isomer, unassigned) [PLL4-10 variant 1, H-PL3-Leu-Leu-S5-Tyr-Leu-Leu-Asp-NHMe]: 0.3 ± 0.1 ×10⁻⁶ cm/s, 66 ± 2% and 2.2.
Taken in the same sequence, the figures for `CNC(=O)[C@H](CC(N)=O)NC(=O)[C@H](CC(C)C)NC(=O)[C@H](CC(C)C)NC(=O)[C@H](Cc1c[nH]cn1)NC(=O)[C@]1(C)CCCC=CCCC[C@](C)(NC(C)=O)C(=O)N[C@@H](C)C(=O)N[C@@H](C)C(=O)N[C@@H](CC(C)C)C(=O)N1` [PLL7-20 variant 4, Ac-S5-Ala-Ala-Leu-S5-His-Leu-Leu-Asn-NHMe] (Ac-[S5]AAL[S5]HLLN-NHMe; staple 1-5) were ≤ 0.1 ×10⁻⁶ cm/s, 74 ± 6% and 2.6.
